{"source": "patent US20120035161A1", "about": "“Novel Compositions and Methods of Treating Diseases Using the Same” (CORRIDOR PHARMACEUTICALS, INC., priority 2006, published 2012)", "key": {"[1]": {"tested_on": "Aspergillus fumigatus-based mouse asthma model", "experiment": "Aspergillus fumigatus-based mouse asthma model, lung resistance", "format": "in vivo", "conditions": "20 mg/ml, intraperitoneally", "description": "Compounds of the invention were also tested for efficiacy in an asthma model.\nA cohort of mice was administered intraperitoneal injections of Aspergillus fumigatus on days 0, 14, 26, 27, and 28. Lung resistance was tested on day 29 immediately following a tracheotomy/methacholine procedure. Animals receiving dexamethasone were administered dexamethasone on days 26, 27 and 28. Animals receiving a compound of the invention were administered the compound just hours before the lung resistance test. As a control, all test compounds, as well as dexamethasone, were also administered to mice in the absence of an A. fumigatus insult."}, "TNF-α": {"tested_on": "TNF-α", "experiment": "Model of LPS-mediated cytokine production, serum TNF-α", "format": "in vivo, CD1:ICR mice", "conditions": "pre-dose time course, 10 mg/kg, IV or IP", "description": "(§1) Both ICI-685 and ICI-735 were formulated in water. For the time course study, both drugs were formulated at a concentration of 1 mg/ml and dosed 10 ml/kg to produce a dose of 10 mg/kg. For the dose-response study, drug was formulated at concentrations of 0.05, 0.2 and 0.5 mg/ml and dosed at a volume of 10 ml/kg to produce doses of 0.5, 2 and 5 mg/kg, respectively. Animals were dosed IV or IP.\nCD1:ICR mice were obtained from Harlan (Indianapolis, Ind.) at 6 weeks of age. Animals were housed 5 per cage, kept on a 12 hr light dark cycle and fed food and water ad libitum. Animals were tested at 8-10 weeks of age.\n(§2) Lipopolysaccharide (heat killed E. coli 0127:B5; Sigma Aldrich) was prepared in distilled water at a concentration of 0.025 mg/ml. LPS was dosed at a volume of 10 ml/kg (IP) to produce a final dose of 0.25 mg/kg (approximately 7.5 μg/mouse). Drugs were dosed prior to LPS administration as indicated elsewhere herein. Blood was collected by retro-orbital eye bleed 90 minutes after LPS administration, Serum was prepared from blood and TNF-α and IL-1β levels were measured by using the OPT-EIA mouse TNF-α and IL-1β ELISA kits (BD Biosciences) as per directions of the manufacturer.\nThe first study was designed to determine the optimal route of administration and the optimal pre-treatment time. Two pre-dose time course studies were conducted. The first (Study 1A) was conducted with 3 pre-dose time points (2, 6 and 18 hrs). The second was conducted at 0, 1 and 2 hr predose time points. For both studies, drug was dosed IP or IV.\nUsing data from the first study, a second study was conducted that was designed to measure dose-response activity of each compound. Compounds were tested at doses of […]., 2.0 and 5 mg/kg using the route and pre-treatment time that produced the best activity.\nas §1, with “Compounds ICI-715, ICI-824, ICI-953” for “Both ICI-685”, “ICI-954” for “ICI-735”, “study,” for “study, both”, “drugs were” for “drug was”\nas §2, with “mg/ml,” for “mg/ml.”, “[…]).” for “μg/mouse).”, “above.” for “elsewhere herein.”, “administration.” for “administration,”\nThe first study was designed to determine the optimal route of administration and the optimal pre-treatment time. One pre-dose time course was conducted (for all compounds) with compounds administered at 0, 1 and 2 hrs prior to LPS treatment. For both studies, drug was dosed IP or IV. The IP study and IV study were conducted on separate days.\nUsing data from the first study, a second study was conducted that was designed to measure dose-response activity of each compound. Compounds were tested at doses of 0.5, 2.0 and 5 mg/kg using the route and pre-treatment time that produced the best activity."}, "[2]": {"biological_target": "T1, Serotonin (5-Hydroxytryptamine) 5-HT1B (Rattus norvegicus, UniProt P28564)", "T1 construct": "from tissue", "T1 sequence (P28564 whole entry)": "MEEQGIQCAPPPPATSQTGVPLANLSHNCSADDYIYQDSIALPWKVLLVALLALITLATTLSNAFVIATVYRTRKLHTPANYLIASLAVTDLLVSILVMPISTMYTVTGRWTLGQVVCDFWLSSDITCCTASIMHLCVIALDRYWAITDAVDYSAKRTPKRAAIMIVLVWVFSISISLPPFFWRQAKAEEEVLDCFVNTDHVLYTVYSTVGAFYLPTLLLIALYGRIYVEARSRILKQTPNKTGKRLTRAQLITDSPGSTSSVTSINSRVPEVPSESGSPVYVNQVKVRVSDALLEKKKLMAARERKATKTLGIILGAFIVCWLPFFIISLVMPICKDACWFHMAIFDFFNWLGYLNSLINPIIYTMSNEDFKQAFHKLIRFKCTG", "experiment": "Assay 271200 radioligand binding, 5-HT1B", "design": "species or system Wistar Rat", "description": "The methods employed in this study have been adapted from the scientific literature to maximize reliability and reproducibility. Reference standards were run as an integral part of each assay to ensure the validity of the results obtained. Assays were performed under conditions as described below. Where presented, IC50 values were determined by a non-linear, least squares regression analysis using the Data Analysis Toolbox (MDL Information Systems, San Leandro, Calif., USA). Where inhibition constants (Ki) are presented, the Ki values were calculated using the equation of Cheng and Prusoff (Cheng, Y., Prusoff, W. H., Biochem. Pharmacol. 22:3099-3108, 1973) using the observed IC50 of the tested compound, the concentration of radioligand employed in the assay, and historical values for the KD of the ligand. Where presented, the Hill coefficient (nu), defining the slope of the competitive binding curve, was calculated using the Data Analysis Toolbox."}, "[3]": {"experiment": "Phospholipidosis assay (LipidTox)", "format": "cell-based", "conditions": "human", "description": "(§3) More recently, fluorescent dyes have been utilized to assess phospholipidosis in a high throughput manner (Nioi et al., 2007, Toxicol. Sci. 99:162-173). In this assay, HepG2 cells are plated in MEM growth medium and allowed to incubate overnight. Cells are treated with test compounds that have been added to the assay medium (10% fetal bovine serum) containing LipidTox (fluorescent lipophilic dye). After 48 h incubation, cells are fixed and stained with Hoechst. Plates are scanned with an automated fluorescent microscope (Thermo Fisher Cellomics ArrayScan 4.5) and image analysis is used to quantitate cell number and phospholipid accumulation. Compounds are tested in triplicate at multiple concentrations. Three reference compounds, sertraline, perhexyline, and meclizine (high, medium, and low inducers of phospholipidosis, respectively) are included in each assay. The data is expressed as fold induction over background and the % of the positive control (sertraline), which is calculated using the following equation:\n(§4) % positive control=100×(RFUcompound−RFUbackground)/(RFUsertaline−RFUbackground),\n(§5) where RFU=Relative Fluorescence Unit"}, "HepG2 cells": {"tested_on": "HepG2 cells", "experiment": "Phospholipidosis assay (LipidTox)", "format": "cell-based", "conditions": "human, 48 h", "description": "as §3, §4, §5"}}, "data": [{"smiles": "NCC(=O)NCCN1CCN(CCCN2c3ccccc3Sc3ccc(C(F)(F)F)cc32)CC1", "note": "[ICI-735]", "values": [{"measurement": "Lung resistance", "setting": "[1]; A. fumigatus insult, day 29", "result": 8.5, "unit": "cm H2O/ml/s"}, {"measurement": "decreasing lung resistance compared with dexamethasone", "setting": "[1]", "result": "at least as effective as dexamethasone"}, {"measurement": "inhibition of LPS-stimulated TNFα secretion", "setting": "TNF-α", "result": "inhibited"}, {"measurement": "inhibition at 0.1 µM", "setting": "[2]; 0.1 μM", "result": 13, "unit": "%"}, {"measurement": "inhibition at 10 µM", "setting": "[2]; 10 μM", "result": 86, "unit": "%"}, {"measurement": "cytotoxicity at 48 h, 1 µM", "setting": "[3]", "result": 0, "unit": "%"}, {"measurement": "cytotoxicity at 48 h, 3 µM", "setting": "[3]", "result": 68, "unit": "%"}, {"measurement": "cytotoxicity at 48 h, 10 µM", "setting": "[3]", "result": 100, "unit": "%"}, {"measurement": "cytotoxicity at 48 h, 30 µM", "setting": "[3]", "result": 100, "unit": "%"}, {"measurement": "fold induction at 48 h, 1 µM", "setting": "[3]", "result": 23}, {"measurement": "fold induction at 48 h, 3 µM", "setting": "[3]", "result": 6}, {"measurement": "% Positive Control", "setting": "HepG2 cells; 1 μM", "result": 43, "unit": "%"}, {"measurement": "% Positive Control", "setting": "HepG2 cells; 3 μM", "result": 10, "unit": "%"}]}]}
